From ChEMBL document CHEMBL1123847, “Synthesis and structure-activity relationship of 1-aryl-6,8-difluoroquinolone antibacterial agents” (1987)
In brackets after ≈: the same amount, converted by molar mass.

Tests used:
[1] = system: Klebsiella aerogenes; assay: In vitro antibacterial activity against Enterobacter aerogenes ATCC 13048; format: functional
[2] = system: Escherichia coli; assay: […] against Escherichia coli Juhl (100 X LD50) (p.o. administration );Range is between (2.2-7.0); format: functional
[3] = system: Escherichia coli; assay: […] against Escherichia coli Juhl (100 X LD50) (s.c. administration );Range is between (1.6-3.9); format: functional
[4] = system: Escherichia coli; assay: In vitro antibacterial activity against Escherichia coli Juhl; format: functional
[5] = system: Klebsiella pneumoniae; assay: In vitro antibacterial activity against Klebsiella pneumoniae 8045; format: functional
[6] = system: Pseudomonas aeruginosa; assay: […] against Pseudomonas aeruginosa 5007 (100 X LD50) (peroral administration );Range is between (17.7-44.1); format: functional
[7] = system: Pseudomonas aeruginosa; assay: […] against Pseudomonas aeruginosa 5007 (100 X LD50) (subcutaneous administration );Range is between (6.6-16.2); format: functional
[8] = system: Pseudomonas aeruginosa; assay: In vitro antibacterial activity against Pseudomonas aeruginosa K799/WT; format: functional
[9] = system: Staphylococcus epidermidis; assay: In vitro antibacterial activity against Staphylococcus epidermis 3519; format: functional
[10] = system: Streptococcus pyogenes; assay: In vitro antibacterial activity against Streptococcus pyogenes 930; format: functional
[11] = system: Staphylococcus aureus; assay: In vitro mouse protection test against Staphylococcus aureus NCTC 10649 (100 X LD50) (s.c. administration );Range is between (2.6-5.4).; format: functional; settings: sc
[12] = system: Staphylococcus aureus; assay: […] against Staphylococcus aureus NCTC 10649 (100 X LD50),(peroral administration); Range is between (3.7-10.2).; format: functional; settings: po
[13] = system: Staphylococcus aureus; assay: In vitro antibacterial activity against Staphylococcus aureus CMX 686B; format: functional
[14] = system: Staphylococcus aureus; assay: In vitro antibacterial activity against Staphylococcus aureus ATCC 6538P; format: functional
[15] = system: Enterococcus faecium; assay: In vitro antibacterial activity against Streptococcus faecium ATCC 8043; format: functional
[16] = system: Acinetobacter; assay: In vitro antibacterial activity against Acinetobacter CMX 669; format: functional
[17] = system: Pseudomonas aeruginosa; assay: In vitro antibacterial activity against Pseudomonas aeruginosa 5007; format: functional
[18] = system: Escherichia coli; assay: […] against Escherichia coli Juhl (100 X LD50) (s.c. administration); Range is between(0.2-0.5); format: functional; settings: sc
[19] = system: Pseudomonas aeruginosa; assay: FIn vitro antibacterial activity against Pseudomonas aeruginosa K799/WT; format: functional
[20] = system: Pseudomonas aeruginosa; assay: In vitro mouse protection test against Pseudomonas aeruginosa 5007 (100 X LD50) (subcutaneous administration; Range is between (1.1-3.8).; format: functional; settings: sc
[21] = system: Pseudomonas aeruginosa; assay: […] against Pseudomonas aeruginosa 5007 (100 X LD50) (p.o. administration ); Range is between (6.8-26.2).; format: functional; settings: po
[22] = system: Escherichia coli; assay: animal or person; settings: in Mus musculus, sc
[23] = system: Escherichia coli; assay: animal or person; settings: in Mus musculus, po
[24] = system: Staphylococcus aureus; assay: animal or person; settings: in Mus musculus, po
Description: In vitro mouse protection test against Staphylococcus aureus NCTC 10649 (100 X LD50) (p.o. administration );Range is between (9.9-24.1)

[25] = system: Staphylococcus aureus; assay: animal or person; settings: in Mus musculus, sc
Description: In vitro mouse protection test against Staphylococcus aureus NCTC 10649 (100 X LD50) (s.c. administration );Range is between (1.0-2.5)

| Compound | MIC [1] | MIC [4] | MIC [5] | MIC [8] | MIC [9] | MIC [10] | MIC [13] | MIC [14] | MIC [15] | MIC [16] | MIC [17] | further results |
| --- | --- | --- | --- | --- | --- | --- | --- | --- | --- | --- | --- | --- |
| CN1CCN(c2c(F)cc3c(=O)c(C(=O)O)cn(-c4ccc(F)cc4F)c3c2F)CC1 | 0.39 µg/mL (≈ 0.896 µM) | 0.39 µg/mL (≈ 0.896 µM) | 0.2 µg/mL (≈ 0.459 µM) | 1.56 µg/mL (≈ 3.58 µM) | 0.78 µg/mL (≈ 1.79 µM) | 3.1 µg/mL (≈ 7.12 µM) | 0.39 µg/mL (≈ 0.896 µM) | 0.39 µg/mL (≈ 0.896 µM) | 6.2 µg/mL (≈ 14.2 µM) | 0.39 µg/mL (≈ 0.896 µM) | 3.1 µg/mL (≈ 7.12 µM) | ED50 mg/kg [2]: 3.9; ED50 mg/kg [3]: 2.5; ED50 mg/kg [6]: 27.9; ED50 mg/kg [7]: 10.3; ED50 [11]: 3.7 mg/kg; ED50 [12]: 6.1 mg/kg |
| O=C(O)c1cn(-c2ccc(F)cc2F)c2c(F)c(N3CCNCC3)c(F)cc2c1=O | 0.2 µg/mL (≈ 0.475 µM) | 0.05 µg/mL (≈ 0.119 µM) | 0.05 µg/mL (≈ 0.119 µM) | – | 0.78 µg/mL (≈ 1.85 µM) | 1.56 µg/mL (≈ 3.7 µM) | 0.39 µg/mL (≈ 0.926 µM) | 0.39 µg/mL (≈ 0.926 µM) | 1.56 µg/mL (≈ 3.7 µM) | 0.39 µg/mL (≈ 0.926 µM) | 0.78 µg/mL (≈ 1.85 µM) | ED50 [18]: 0.3 mg/kg; MIC [19]: 0.78 µg/mL (≈ 1.85 µM) |
| NC1CCN(c2c(F)cc3c(=O)c(C(=O)O)cn(-c4ccc(F)cc4)c3c2F)C1 (configuration not stated) | 0.2 µg/mL (≈ 0.496 µM) | 0.2 µg/mL (≈ 0.496 µM) | 0.05 µg/mL (≈ 0.124 µM) | 1.56 µg/mL (≈ 3.87 µM) | 0.39 µg/mL (≈ 0.967 µM) | 1.56 µg/mL (≈ 3.87 µM) | 0.2 µg/mL (≈ 0.496 µM) | 0.2 µg/mL (≈ 0.496 µM) | 3.1 µg/mL (≈ 7.69 µM) | 0.78 µg/mL (≈ 1.93 µM) | 3.1 µg/mL (≈ 7.69 µM) | – |
| O=C(O)c1cn(C2CC2)c2cc(N3CCNCC3)c(F)cc2c1=O [CIPROFLOXACIN] | 0.05 µg/mL (≈ 0.151 µM) | – | 0.02 µg/mL (≈ 0.0604 µM) | 0.1 µg/mL (≈ 0.302 µM) | 0.39 µg/mL (≈ 1.18 µM) | 0.39 µg/mL (≈ 1.18 µM) | 0.39 µg/mL (≈ 1.18 µM) | 0.2 µg/mL (≈ 0.604 µM) | 0.2 µg/mL (≈ 0.604 µM) | 1.56 µg/mL (≈ 4.71 µM) | 0.1 µg/mL (≈ 0.302 µM) | ED50 [20]: 2.1 mg/kg; ED50 [21]: 13.3 mg/kg; ED50 [22]: 0.2 mg/kg; ED50 [23]: 1.9 mg/kg; ED50 [24]: 15.5 mg/kg; ED50 [25]: 1.6 mg/kg |
| CCn1cc(C(=O)O)c(=O)c2cc(F)c(N3CCNCC3)cc21 [NORFLOXACIN] | 0.2 µg/mL (≈ 0.626 µM) | 0.1 µg/mL (≈ 0.313 µM) | 0.1 µg/mL (≈ 0.313 µM) | 0.39 µg/mL (≈ 1.22 µM) | 1.56 µg/mL (≈ 4.89 µM) | 3.1 µg/mL (≈ 9.71 µM) | 0.78 µg/mL (≈ 2.44 µM) | 0.78 µg/mL (≈ 2.44 µM) | 0.78 µg/mL (≈ 2.44 µM) | 6.2 µg/mL (≈ 19.4 µM) | 0.39 µg/mL (≈ 1.22 µM) | – |
